Experimental data published in patent US20090253745A1, “MODULATORS OF OCULAR OXIDATIVE STRESS” (SIRION THERAPEUTICS, INC., priority 2007, published 2009).

What was measured:
eyeglobes of mice = assay: Ex vivo lens toxicity test, whole eyeglobes cultured overnight; conditions: overnight incubation, media containing 45% β-cyclodextrin, 37° C.
Procedure: FIG. 3. Ex vivo lens toxicity test of TAPP1. The eyeglobes of mice (aged 42 days) were cultured overnight either with control solution (media containing 45% β-cyclodextrin) or TAPP1 (TAPP1 in media containing 45% β-cyclodextrin), at 37° C. overnight, and in 95% air/5% CO2. […] To determine the effects of TAPP1 on isolated lenses, intact lenses were dissected from wild-type mouse eyeglobes, and incubated in DMEM media in a 96 well tissue culture plate. Groups of 3-6 lenses were incubated in 200 μl of media alone (negative control), 4% (2-hydroxypropyl)-β-cyclodextrin (carrier control), 8 mM hydrogen peroxide (H2O2, positive control for lens toxicity), 4 mM TAPP1-O (free radical form), 4 mM TAPP1-R (reduced form), and 4 mM of the two products of TAPP1-R hydrolysis (HP-1 and HP-2), respectively. β-cyclodextrin was included as a carrier control because all of the stock solutions contained 45% (2-hydroxypropyl)-β-cyclodextrin. The samples were incubated in 5% CO2 incubator at 37 C for 2 days.
The TAPP compositions are intended for topical delivery to the anterior portion of the eye. […] Morphological or anatomical effects are determined by comparison of TAPP-treated samples to samples incubated with either the TAPP vehicle or samples which are exposed (10 min treatment) to 100% ethanol (a positive control for lens toxicity). […]

in vitro = in vitro ADME; conditions: mouse; 1 mM TAPP1, anterior segments of twelve eyeglobes in 0.5 ml MEM, 37° C.; read-out: half-life of hydrolysis
Procedure: FIG. 2. In vitro hydrolysis of TAPP1 by anterior segments from mouse eyeglobes. Anterior segments were isolated from twelve wild-type mouse eyeglobes, and cultured in 0.5 ml of MEM media. TAPP1 was added to the culture to a final concentration of 1 mM, and the sample was incubated at 37° C. At 0, 1, 5, 15, 30, 60 and 120 min following incubation, 20 μl aliquot samples were removed from the culture. The aliquots were mixed with equal volume of ice-cold methanol, and incubated on ice for 10 min, followed by centrifugation at 25,000 g to precipitate proteins. TAPP1 content in the supernatant was analyzed by a capillary reverse phase C18 column. The relative quantity of TAPP1 was determined by integration of chromatographic peak area. […] Release of the two products of TAPP1 hydrolysis (designated HP-1 and HP-2) was […] to the rate of TAPP1 hydrolysis (not shown). Corneal esterases may be largely responsible for the hydrolysis of TAPP1.
(§1) The compound TAPP1 (C18H24N4O3), MW 344.18, is formulated as described above. A 40 mM solution of TAPP1 is used. […] TAPP content of the supernatant is analyzed by a capillary reverse phase C18 column. […] The relative quantity of the TAPP is determined by area integration of the TAPP elution peak. […] Isoprostanes are measured with a commercially available in vitro assay kit.

[1] = system: explants of wild-type mouse retina; assay: In vitro model of light-mediated oxidative stress: isoprostane release from retina explants; format: cell-based; conditions: intense light (~10,000 Lux), 2-day incubation
Text: FIG. 6. Development of an in vitro model of light-mediated oxidative stress. An in vitro model of oxidative stress was developed to determine the therapeutic potency of the TAPP compositions. In this model, explants of wild-type mouse retina are placed into culture media and exposed to intense white light over a 2 day period. Control samples were exposed to subdued lighting (˜100 Lux). The formation of oxidized arachadonic acid (isoprostanes), which is a direct measure of oxidative stress in biological samples, was monitored with a commercially available assay kit (Cayman Chemical Company, Ann Arbor, Mich.).
FIG. 7. TAPP1 reduces light-mediated oxidative stress. The aforementioned in vitro assay of light-mediated oxidative stress was employed to determine the therapeutic potency of TAPP1. In this experiment, isoprostane released from retina explants was measured in the absence and presence of TAPP1 in subdued lighting (˜100 Lux) and during intense light exposure (˜10,000 Lux). […]
as §1, with “above.” for “above. A 40 mM solution of TAPP1 is used.”

SMILES: CC1(C)CC(OC(=O)c2cc(-c3ccncc3)n[nH]2)CC(C)(C)N1[O] [TAPP1, 1-oxyl-2,2,6,6-tetramethylpiperidin-4-yl 3-(pyridin-4-yl)-1H-pyrazole-5-carboxylate]
- cataract or other overt toxicity in eyeglobes (eyeglobes of mice): no cataract or other overt toxicity
- half-life (in vitro): ~10 min
- isoprostane release from retina explants [1]: significantly reduced
